According to publication PMC3672506, “A useful EGFR-TK ligand for tumor diagnosis with SPECT: development of radioiodinated 6-(3-morpholinopropoxy)-7-ethoxy-4-(3′-iodophenoxy)quinazoline” (Annals of Nuclear Medicine, 2013):
Like-named read-outs stand apart in the source and are kept apart here.

Type: in vivo
Conditions: normal ddY mice; for Blood radioactivity / Bone radioactivity / Brain radioactivity / Colon radioactivity / Heart radioactivity / Intestine radioactivity / Kidney radioactivity / Liver radioactivity / Lung radioactivity / Muscle radioactivity / Pancreas radioactivity / Skin radioactivity / Spleen radioactivity / Stomach radioactivity / Thyroid radioactivity: i.v.
Procedure: [^125I]PYK (37 kBq, 74 TBq/mmol) in 0.1 mL saline was injected intravenously into ddY male mice (5 weeks old, 25–30 g, n = 4) via the lateral tail vein. At the desired time (5 min—24 h) interval after administration, the animals were sacrificed by decapitation. Samples of blood and tissues of interest were excised and weighed. Radioactivity was measured using a well-type NaI(Tl) scintillation gamma counter. The results were expressed in terms of percentage of injected dose per gram of blood or tissue.
[^125I]PYK was transported well into various organs and disappeared slowly from the blood. In the liver highest uptake and rapid clearance were observed. The lungs, kidney, heart, pancreas, spleen, and brain uptakes were similar pattern to that of the liver. Furthermore, the increase in [^125I]PYK uptake in the stomach and thyroid as deiodination parameters were not found.

## CCOc1cc2ncnc(Oc3cccc([125I])c3)c2cc1OCCCN1CCOCC1 [[^125I]PYK]
  in vivo stability (deiodination: stomach and thyroid uptake): good stability
5 min after injection
  Blood radioactivity: 0.98 ± 0.61 % injected dose per gram tissu
  Bone radioactivity: 1.13 ± 0.28 % injected dose per gram tissu
  Brain radioactivity: 2.07 ± 0.07 % injected dose per gram tissu
  Colon radioactivity: 1.89 ± 0.37 % injected dose per gram tissu
  Heart radioactivity: 3.47 ± 0.29 % injected dose per gram tissu
  Intestine radioactivity: 4.57 ± 0.63 % injected dose per gram tissu
  Kidney radioactivity: 15.1 ± 1.38 % injected dose per gram tissu
  Liver radioactivity: 10.5 ± 0.92 % injected dose per gram tissu
  Lung radioactivity: 11.89 ± 2.86 % injected dose per gram tissu
  Muscle radioactivity: 1.78 ± 0.13 % injected dose per gram tissu
  Pancreas radioactivity: 6.95 ± 0.49 % injected dose per gram tissu
  Skin radioactivity: 0.68 ± 0.13 % injected dose per gram tissu
  Spleen radioactivity: 4.42 ± 0.95 % injected dose per gram tissu
  Stomach radioactivity: 2.41 ± 0.59 % injected dose per gram tissu
  Thyroid radioactivity: 0.05 ± 0.04 % injected dose per organ
15 min after injection
  Blood radioactivity: 1.05 ± 0.08 % injected dose per gram tissu
  Bone radioactivity: 1.36 ± 0.39 % injected dose per gram tissu
  Brain radioactivity: 3.15 ± 1.22 % injected dose per gram tissu
  Colon radioactivity: 2.21 ± 0.48 % injected dose per gram tissu
  Heart radioactivity: 1.76 ± 0.89 % injected dose per gram tissu
  Intestine radioactivity: 5.57 ± 1.69 % injected dose per gram tissu
  Kidney radioactivity: 15.6 ± 1.33 % injected dose per gram tissu
  Liver radioactivity: 13.9 ± 2.47 % injected dose per gram tissu
  Lung radioactivity: 6.85 ± 1.99 % injected dose per gram tissu
  Muscle radioactivity: 0.97 ± 0.15 % injected dose per gram tissu
  Pancreas radioactivity: 5.52 ± 0.50 % injected dose per gram tissu
  Skin radioactivity: 0.91 ± 0.13 % injected dose per gram tissu
  Spleen radioactivity: 4.23 ± 0.90 % injected dose per gram tissu
  Stomach radioactivity: 3.03 ± 0.36 % injected dose per gram tissu
  Thyroid radioactivity: 0.05 ± 0.03 % injected dose per organ
30 min after injection
  Blood radioactivity: 0.80 ± 0.07 % injected dose per gram tissu
  Bone radioactivity: 0.60 ± 0.19 % injected dose per gram tissu
  Brain radioactivity: 0.82 ± 0.33 % injected dose per gram tissu
  Colon radioactivity: 2.33 ± 0.40 % injected dose per gram tissu
  Heart radioactivity: 1.43 ± 0.16 % injected dose per gram tissu
  Intestine radioactivity: 9.11 ± 0.57 % injected dose per gram tissu
  Kidney radioactivity: 12.6 ± 2.36 % injected dose per gram tissu
  Liver radioactivity: 13.3 ± 1.83 % injected dose per gram tissu
  Lung radioactivity: 4.40 ± 1.60 % injected dose per gram tissu
  Muscle radioactivity: 1.02 ± 0.53 % injected dose per gram tissu
  Pancreas radioactivity: 3.42 ± 0.33 % injected dose per gram tissu
  Skin radioactivity: 1.02 ± 0.08 % injected dose per gram tissu
  Spleen radioactivity: 3.70 ± 1.24 % injected dose per gram tissu
  Stomach radioactivity: 3.41 ± 0.37 % injected dose per gram tissu
  Thyroid radioactivity: 0.01 ± 0.01 % injected dose per organ
1 h after injection
  Blood radioactivity: 0.83 ± 0.16 % injected dose per gram tissu
  Bone radioactivity: 1.81 ± 2.40 % injected dose per gram tissu
  Brain radioactivity: 0.47 ± 0.29 % injected dose per gram tissu
  Colon radioactivity: 3.30 ± 0.10 % injected dose per gram tissu
  Heart radioactivity: 1.33 ± 0.23 % injected dose per gram tissu
  Intestine radioactivity: 15.84 ± 2.63 % injected dose per gram tissu
  Kidney radioactivity: 7.94 ± 0.37 % injected dose per gram tissu
  Liver radioactivity: 12.3 ± 2.45 % injected dose per gram tissu
  Lung radioactivity: 3.42 ± 0.83 % injected dose per gram tissu
  Muscle radioactivity: 0.65 ± 0.04 % injected dose per gram tissu
  Pancreas radioactivity: 2.47 ± 0.43 % injected dose per gram tissu
  Skin radioactivity: 0.99 ± 0.06 % injected dose per gram tissu
  Spleen radioactivity: 2.44 ± 0.35 % injected dose per gram tissu
  Stomach radioactivity: 4.33 ± 0.76 % injected dose per gram tissu
  Thyroid radioactivity: 0.03 ± 0.01 % injected dose per organ
3 h after injection
  Blood radioactivity: 0.50 ± 0.13 % injected dose per gram tissu
  Bone radioactivity: 0.25 ± 0.16 % injected dose per gram tissu
  Brain radioactivity: 0.27 ± 0.05 % injected dose per gram tissu
  Colon radioactivity: 21.14 ± 5.62 % injected dose per gram tissu
  Heart radioactivity: 0.64 ± 0.25 % injected dose per gram tissu
  Intestine radioactivity: 14.82 ± 7.80 % injected dose per gram tissu
  Kidney radioactivity: 13.80 ± 9.25 % injected dose per gram tissu
  Liver radioactivity: 10.94 ± 7.67 % injected dose per gram tissu
  Lung radioactivity: 1.75 ± 0.18 % injected dose per gram tissu
  Muscle radioactivity: 1.00 ± 1.27 % injected dose per gram tissu
  Pancreas radioactivity: 2.18 ± 0.92 % injected dose per gram tissu
  Skin radioactivity: 0.47 ± 0.46 % injected dose per gram tissu
  Spleen radioactivity: 0.99 ± 0.56 % injected dose per gram tissu
  Stomach radioactivity: 0.59 ± 0.23 % injected dose per gram tissu
  Thyroid radioactivity: 0.05 ± 0.04 % injected dose per organ
6 h after injection
  Blood radioactivity: 0.29 ± 0.03 % injected dose per gram tissu
  Bone radioactivity: 0.23 ± 0.02 % injected dose per gram tissu
  Brain radioactivity: 0.11 ± 0.03 % injected dose per gram tissu
  Colon radioactivity: 22.10 ± 7.54 % injected dose per gram tissu
  Heart radioactivity: 0.63 ± 0.21 % injected dose per gram tissu
  Intestine radioactivity: 8.53 ± 1.84 % injected dose per gram tissu
  Kidney radioactivity: 3.58 ± 0.52 % injected dose per gram tissu
  Liver radioactivity: 4.70 ± 0.36 % injected dose per gram tissu
  Lung radioactivity: 1.77 ± 0.22 % injected dose per gram tissu
  Muscle radioactivity: 0.25 ± 0.04 % injected dose per gram tissu
  Pancreas radioactivity: 1.53 ± 0.38 % injected dose per gram tissu
  Skin radioactivity: 0.75 ± 0.46 % injected dose per gram tissu
  Spleen radioactivity: 1.08 ± 0.25 % injected dose per gram tissu
  Stomach radioactivity: 0.73 ± 0.60 % injected dose per gram tissu
  Thyroid radioactivity: 0.03 ± 0.02 % injected dose per organ
24 h after injection
  Blood radioactivity: 0.08 ± 0.04 % injected dose per gram tissu
  Bone radioactivity: 0.04 ± 0.02 % injected dose per gram tissu
  Brain radioactivity: 0.02 ± 0.06 % injected dose per gram tissu
  Colon radioactivity: 15.91 ± 6.59 % injected dose per gram tissu
  Heart radioactivity: 0.22 ± 0.04 % injected dose per gram tissu
  Intestine radioactivity: 3.76 ± 1.38 % injected dose per gram tissu
  Kidney radioactivity: 0.62 ± 0.10 % injected dose per gram tissu
  Liver radioactivity: 0.52 ± 0.10 % injected dose per gram tissu
  Lung radioactivity: 0.38 ± 0.09 % injected dose per gram tissu
  Muscle radioactivity: 0.03 ± 0.01 % injected dose per gram tissu
  Pancreas radioactivity: 0.35 ± 0.05 % injected dose per gram tissu
  Skin radioactivity: 0.17 ± 0.11 % injected dose per gram tissu
  Spleen radioactivity: 0.24 ± 0.02 % injected dose per gram tissu
  Stomach radioactivity: 0.16 ± 0.04 % injected dose per gram tissu
  Thyroid radioactivity: 0.01 ± 0.00 % injected dose per organ
